Experimental data from PubChem BioAssay (NCI).
Values joined by “and” are separate entries in the source; they are usually repeats but may differ in a detail not shown here. Equal entries are not always repeated.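 Tested at 5 concentrations; 48 h exposure; 96-well plates; endpoints linearly interpolated, else capped at highest concentration. GI50 = concentration required for 50% inhibition of growth. TGI: total growth inhibition.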

Columns and labels:
Assay in all cases: growth of human tumour cells (NCI), 48 h
BT-549 breast = system: BT-549 breast
T-47D breast = system: T-47D breast
MDA-MB-231 breast = system: MDA-MB-231 breast
MDA-N = system: MDA-N
MCF7 breast = system: MCF7 breast
DMS 273 small cell lung = system: DMS 273 small cell lung
RXF-631 renal = system: RXF-631 renal
KM20L2 colon = system: KM20L2 colon
HOP-18 NSCLC = system: HOP-18 NSCLC

| Structure (SMILES) | TGI (BT-549 breast) | TGI (T-47D breast) | TGI (MDA-MB-231 breast) | TGI (MDA-N) | TGI (MCF7 breast) | TGI (DMS 273 small cell lung) | TGI (RXF-631 renal) | TGI (KM20L2 colon) | GI50 (MDA-N) | GI50 (BT-549 breast) | GI50 (T-47D breast) | GI50 (MDA-MB-231 breast) | GI50 (MCF7 breast) | TGI (HOP-18 NSCLC) |
| --- | --- | --- | --- | --- | --- | --- | --- | --- | --- | --- | --- | --- | --- | --- |
| COc1ccc(-c2oc3c(OC)c(OC)c(OC)c(O)c3c(=O)c2OC)cc1OC | > 100 µM | 25.6 µM | > 100 µM | 30 µM | > 35.1 µM |  |  |  |  |  |  |  |  |  |
| COC1=CC(=O)C2C(C1=O)[C@@H]1c3ccccc3C[C@H]21 (some centres not stated) |  |  |  |  |  | > 100 µM | > 100 µM |  |  |  |  |  |  |  |
| O=C(O)COc1ccc(O)c2c1C(=O)CCCC2=O |  |  |  |  |  | > 100 µM | > 100 µM | > 100 µM |  |  |  |  |  |  |
| COc1ccc(-c2cc(=O)c3c(C)cc(C)nc3[nH]2)cc1 | 86.7 µM | > 100 µM | 67.5 µM | > 100 µM | > 100 µM |  |  |  | 33.2 µM |  |  |  |  |  |
| O=C1C(c2c[nH]c3ccccc23)=C(c2c[nH]c3ccccc23)C(=O)N1O | > 25 µM | > 25 µM | > 25 µM |  | > 25 µM |  |  |  |  | > 25 µM | > 25 µM | > 19.4 µM | > 25 µM |  |
| OCCCOC(c1ccccc1)(c1ccccc1)c1ccccc1 |  |  |  |  |  | > 100 µM | > 100 µM | > 100 µM |  |  |  |  |  |  |
| O=CC(O)C(O)C(O)C(O)C(=O)NCCCCCCCCCCCCNC(=O)C(O)C(O)C(O)C(O)C=O (configuration not stated) | > 100 µM | > 100 µM | > 100 µM | > 100 µM | > 100 µM |  |  |  |  |  |  |  |  |  |
| O=[N+]([O-])c1c(Br)cc(Br)c2c1Nc1c(ccc(Cl)c1Cl)S2 | 8.87 µM | 29.9 µM | 26.6 µM |  | 17.9 µM |  |  |  |  |  |  |  |  |  |
| Oc1ccc(C(c2ccc(O)cc2)c2ccc(Cl)cn2)cc1 | 0.0707 µM | 0.0762 µM | > 100 µM |  | 0.545 µM |  |  |  |  | 0.0231 µM | 0.0243 µM | 28 µM | 0.0546 µM |  |
| CC1CCP(=O)(c2ccccc2)c2ccccc21 (configuration not stated) |  |  |  |  |  | 90.2 µM |  | > 100 µM |  |  |  |  |  | > 100 µM |
| CC(=O)/C(=C/n1c(=S)[nH]c2ccccc21)C(=O)Nc1ccccc1C | > 100 µM | > 100 µM | > 100 µM | > 100 µM |  |  |  |  |  |  |  |  |  |  |
| CCCCc1c2c(nc3c1CCc1cc4cc5c(nc4nc1-3)-c1nc3c(c(CCCC)c1CC5)CCCC3)CCCC2 |  |  |  |  |  | > 100 µM |  | 69.3 µM |  |  |  |  |  |  |
| COc1cc(/C=C\c2ccc(C)cc2)cc(OC)c1OC |  |  |  | 0.00521 µM | > 100 µM | 17.4 µM |  | 0.000535 µM |  |  |  |  |  |  |
| CCOC(=O)C1=C(C(=O)c2ccc(C)cc2)C(c2cccc([N+](=O)[O-])c2)C(C(=O)c2ccc(C)cc2)=C(C(=O)OCC)N1 | > 100 µM | 8.84 µM | 29 µM |  | > 100 µM |  |  |  |  |  |  |  |  |  |
| O=C(/C(=C\C(=O)c1cccs1)c1ccsc1)c1ccc(Br)cc1 |  | > 100 µM | > 100 µM | > 100 µM | > 100 µM |  |  |  |  |  |  |  |  |  |
| COc1cc(CCN)c2c(c1OC)SSSSS2 | 2.23 µM |  | 2.92 µM | 2.21 µM |  |  |  |  | 0.706 µM | 0.793 µM |  | 1.49 µM |  |  |

| Structure (SMILES) | TGI (BT-549 breast) | TGI (T-47D breast) | TGI (MDA-MB-231 breast) | TGI (MDA-N) | TGI (MCF7 breast) | TGI (DMS 273 small cell lung) | TGI (RXF-631 renal) | TGI (KM20L2 colon) | GI50 (MDA-N) | GI50 (BT-549 breast) | GI50 (T-47D breast) | GI50 (MDA-MB-231 breast) | GI50 (MCF7 breast) | TGI (HOP-18 NSCLC) |
| --- | --- | --- | --- | --- | --- | --- | --- | --- | --- | --- | --- | --- | --- | --- |
| FC(F)(F)c1cc(-c2nnc3n2N=C(N2CCCC2)CS3)cc(C(F)(F)F)c1 | > 50 µM | > 50 µM | > 50 µM |  | > 50 µM |  |  |  |  | > 50 µM | 19.3 µM | 32.2 µM | > 50 µM |  |
| CCCNCCCC(NC(C)=O)C(=O)NCc1ccccc1 (configuration not stated) |  |  |  |  |  | > 100 µM | > 100 µM | > 100 µM |  |  |  |  |  |  |
| CCCC(=O)Nc1cc(C(=O)N2C[C@@H]3C[C@]34C2=CC(=O)c2[nH]cc(C)c24)n(COC)c1 | 29.5 µM and 11.3 µM | 30.2 µM and 10.6 µM | 29.5 µM and 8.01 µM | 19.6 µM and 13.3 µM | 50 µM and 11.9 µM |  |  |  | 3.66 µM | 3 µM | 2.38 µM | 2.94 µM |  |  |
| COc1ccccc1/C=C/[N+](=O)[O-] | 4.13 µM | 16.9 µM | 6.93 µM |  | 7.99 µM |  |  |  |  | 2.09 µM | 3.17 µM | 2.06 µM | 2.43 µM |  |
| CCOC(=O)/C(O)=C/c1cc(OC)cc(=O)o1 |  |  |  |  |  | > 100 µM |  | > 100 µM |  |  |  |  |  | > 100 µM |
| COc1ccccc1N=C(N)N/N=C/c1c[nH]c2ccccc12 |  |  |  |  |  |  |  | 26.1 µM |  |  |  |  |  | 34 µM |
| O=C(Nc1ccc(F)cc1)c1ccc(NC2=C(Cl)C(=O)N(Cc3ccccc3)C2=O)cc1 | 10.8 µM | > 100 µM | 38 µM |  | > 100 µM |  |  |  |  | 3.14 µM | 5.69 µM | 17.2 µM | 6.24 µM |  |
| O=C(O)[C@@H]1[C@H](C(=O)O)[C@H](C(=O)O)C[C@@H]1C(=O)O | > 100 µM | > 100 µM | > 100 µM | > 100 µM | > 100 µM |  |  |  |  |  |  |  |  |  |
| NCCCOCC(=O)O |  |  |  |  |  | > 100 µM |  | > 100 µM |  |  |  |  |  |  |
| Cc1c(S(C)(=O)=O)c(-c2cc(F)cc(N3CCN(c4ccc(NS(=O)(=O)c5ccc(N[C@H](CCN6CCC(C(=O)OCCCP(=O)(O)O)CC6)CSc6ccccc6)c(S(=O)(=O)C(F)(F)F)c5)cc4)CC3)c2)c(-c2ccc(Cl)cc2)n1C(C)C | > 100 µM | > 100 µM | 28 µM |  | > 100 µM |  |  |  |  | > 100 µM | > 100 µM | 3.13 µM | > 100 µM |  |
| Nc1nc2c(c(=O)[nH]1)NC(CO)CN2 (configuration not stated) |  |  |  |  |  | > 100 µM |  |  |  |  |  |  |  | > 100 µM |
| O=C1C=C(NCCNC(=S)Nc2ccccc2)c2nccc3c2c1nc1ccccc13 | > 100 µM | > 100 µM | > 100 µM |  | > 100 µM |  |  |  |  | 70.1 µM | > 100 µM | 94.5 µM | 23.3 µM |  |
| CCc1n(Cc2ccc3ccccc3n2)cc[n+]1Cc1ccc2ccccc2n1 | 11.2 µM | 0.794 µM | 4.16 µM |  | 11.6 µM |  |  |  |  | 0.278 µM | 0.046 µM | 0.441 µM | 0.135 µM |  |
| Cc1ccc(S(=O)(=O)NCCNC2=CC(=O)c3nc4ccccc4c4ccnc2c34)cc1 | 46.1 µM | 95.9 µM | 66.1 µM |  | 32.7 µM |  |  |  |  | 19.2 µM | 25.6 µM | 24 µM | 12.9 µM |  |
| CCOC(=O)C1=C(c2ccccc2)N(C)c2ccccc2S1 | 66.6 µM | 73.9 µM | 58.9 µM |  | 78.8 µM |  |  |  |  |  |  |  |  |  |
